According to patent US20240409585A1, “MACROCYCLIC IMMUNOMODULATORS” (priority 2021, published 2024):
Numbered stars: 1 amine (or outer) side, 2 acyl side, 3 side chain; on linkers, the order of the positions; unused ones are H or OH. Bridge positions count the residues as written; N and C are the ends. Square brackets hold non-standard residues; d marks the D form. Peptide text beside a SMILES is read from it. * marks the point of attachment. Bip(4'-COOH) = N[C@@H](Cc1ccc(-c2ccc(C(=O)O)cc2)cc1)C(=O)O; Bip(4'-NHAc) = CC(=O)Nc1ccc(-c2ccc(C[C@H](N)C(=O)O)cc2)cc1; X38 = O=C([C@H](CCCn1cc(-c2ccccc2)nn1)N[*:1])[*:2]; Phe(3-CF3) = N[C@@H](Cc1cccc(C(F)(F)F)c1)C(=O)O; Ala(morpholin-4-yl) = N[C@@H](CN1CCOCC1)C(=O)O; Phe(4-COOH) = N[C@@H](Cc1ccc(C(=O)O)cc1)C(=O)O; Bip = N[C@@H](Cc1ccc(-c2ccccc2)cc1)C(=O)O; Abu(3R-NH2) = C[C@@H](N)[C@H](N)C(=O)O; Phe(3-Me) = Cc1cccc(C[C@H](N)C(=O)O)c1; Val(3-OH) = CC(C)(O)[C@H](N)C(=O)O; hPhe = N[C@@H](CCc1ccccc1)C(=O)O; Cha = N[C@@H](CC1CCCCC1)C(=O)O; hSer = N[C@@H](CCO)C(=O)O; Carboxymethyl = O=C(O)C*; NMeA = CN[C@@H](C)C(=O)O; Orn = NCCC[C@H](N)C(=O)O; Dab = NCC[C@H](N)C(=O)O; Dap = NC[C@H](N)C(=O)O

Molecular target: T1, Alexa fluor-647 labeled human PD-L1-Ig binding to Jurkat cell line over-expressing human PD-1 (Homo sapiens, UniProt Q15116)
T1 construct: expressed in transfected cells; host or cells: Jurkat
T1 sequence (Q15116 25-288): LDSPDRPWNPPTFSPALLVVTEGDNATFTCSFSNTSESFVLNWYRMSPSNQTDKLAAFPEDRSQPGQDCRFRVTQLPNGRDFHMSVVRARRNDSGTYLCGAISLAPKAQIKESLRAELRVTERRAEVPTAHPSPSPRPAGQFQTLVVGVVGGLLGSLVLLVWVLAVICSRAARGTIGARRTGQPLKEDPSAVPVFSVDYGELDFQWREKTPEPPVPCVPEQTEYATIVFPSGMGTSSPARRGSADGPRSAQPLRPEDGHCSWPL
Test: Jurkat-PD-1 Cell Binding High-Content Screening Assay (CBA): Method 3 (Alexa fluor-647 labeled PD-L1-Ig)
Details: Jurkat-PD-1 cells, Alexa fluor-647 labeled PD-L1-Ig 177 nM; head μM; read-out: CBA Method 3 μM
Method: Jurkat-PD-1 Cell Binding High-Content Screening Assay (CBA): Method 3
Alexa fluor-647 was covalently linked to the Ig epitope tag of human PD-L1-Ig and fluorescently labeled PD-L1-Ig was used for the binding studies with a Jurkat cell line over-expressing human PD-1. Briefly, 2.5×10^4 Jurkat-hPD-1 cells were seeded into 384 well plates in 20 μl of RPMI supplemented with 10% fetal calf serum. 12.5 nl of compound was added to cells followed by incubation at 37° C. for 2 hours. Then, 10 ul of Alexa fluor-647 labeled PD-L1-Ig (177 nM final), diluted in RPMI supplemented with 10% fetal calf serum was added to the cells and incubated for 1 hour. Cells were then fixed with 4% paraformaldehyde containing 10 μg/ml Hoechst 33342 and then washed 3× in 100 ul PBS and 100 ul of PBS was added in the final step. Data was collected using the Operetta High Content Imager and the data was analyzed using the columbus software.

First: CC(=O)Nc1ccc(-c2ccc(C[C@@H]3NC(=O)[C@H](Cc4cccc(C(F)(F)F)c4)NC(=O)[C@H](CC(=O)O)NC(=O)[C@H](Cc4ccc(C(=O)O)cc4)NC(=O)[C@H]([C@@H](C)N)NC(=O)CSC[C@@H](C(=O)N[C@@H](CCN)C(N)=O)NC(=O)[C@H](CCC(=O)O)NC(=O)[C@H](C(C)C)NC(=O)[C@H](CC4CCCCC4)NC(=O)[C@H](CCN)NC(=O)[C@@H](CC(C)C)NC(=O)[C@H](C)N(C)C(=O)[C@H](Cc4ccc(C(=O)O)cc4)NC(=O)[C@H](Cc4ccc(-c5ccccc5)cc4)NC3=O)cc2)cc1 [Example 5160] ({CH2CO}-[Abu(3R-NH2)][Phe(4-COOH)]D[Phe(3-CF3)][Bip(4'-NHAc)][Bip][Phe(4-COOH)][NMeA][dL][Dab][Cha]VEC[Dab]-NH2; thioether N-14)
Second: CC(=O)Nc1ccc(-c2ccc(C[C@@H]3NC(=O)[C@H](Cc4cccc(C(F)(F)F)c4)NC(=O)[C@H](CC(=O)O)NC(=O)[C@H](Cc4ccc(-c5ccc(C(=O)O)cc5)cc4)NC(=O)[C@H](CN4CCOCC4)NC(=O)CSC[C@@H](C(=O)N[C@@H](CCN)C(N)=O)NC(=O)[C@H](CCC(N)=O)NC(=O)[C@H](C(C)(C)O)NC(=O)[C@H](CC4CCCCC4)NC(=O)[C@H](CCN)NC(=O)[C@@H](CC(C)C)NC(=O)[C@H](C)N(C)C(=O)[C@H](Cc4ccc(C(=O)O)cc4)NC(=O)[C@H](Cc4ccc(-c5ccccc5)cc4)NC3=O)cc2)cc1 [Example 5296] ({CH2CO}-[Ala(morpholin-4-yl)][Bip(4'-COOH)]D[Phe(3-CF3)][Bip(4'-NHAc)][Bip][Phe(4-COOH)][NMeA][dL][Dab][Cha][Val(3-OH)]QC[Dab]-NH2; thioether N-14)
The IC50 of the first is 2-fold higher: 0.04 µM for the first, 0.02 µM for the second. The second is the more potent here.

First: Cc1cccc(C[C@@H]2NC(=O)[C@H](CC(=O)O)NC(=O)[C@H](Cc3ccc(OCC(=O)O)cc3)NC(=O)[C@H](CN)NC(=O)CSC[C@@H](C(=O)N[C@@H](CCN)C(N)=O)NC(=O)[C@H](CCCN)NC(=O)[C@H](C(C)C)NC(=O)[C@H](CC3CCCCC3)NC(=O)[C@H](CCN)NC(=O)[C@@H](CC(C)C)NC(=O)[C@H](C)N(C)C(=O)[C@H](CCC(N)=O)NC(=O)[C@H](Cc3ccc(-c4ccccc4)cc3)NC(=O)[C@H](Cc3ccc(C(=O)O)cc3)NC2=O)c1 [Example 5178] ({CH2CO}-[Dap]Y(Carboxymethyl)D[Phe(3-Me)][Phe(4-COOH)][Bip]Q[NMeA][dL][Dab][Cha]V[Orn]C[Dab]-NH2; thioether N-14)
Second: Cc1cccc(C[C@@H]2NC(=O)[C@H](CC(=O)O)NC(=O)[C@H](Cc3ccc(OCC(=O)O)cc3)NC(=O)[C@H](CCc3ccccc3)NC(=O)CSC[C@@H](C(=O)N[C@@H](CCN)C(N)=O)NC(=O)[C@H](CCCN)NC(=O)[C@H](C(C)C)NC(=O)[C@H](CC3CCCCC3)NC(=O)[C@H](CCN)NC(=O)[C@@H](CC(C)C)NC(=O)[C@H](C)N(C)C(=O)[C@H](CCC(N)=O)NC(=O)[C@H](Cc3ccc(-c4ccccc4)cc3)NC(=O)[C@H](Cc3ccc(C(=O)O)cc3)NC2=O)c1 [Example 5265] ({CH2CO}-[hPhe]Y(Carboxymethyl)D[Phe(3-Me)][Phe(4-COOH)][Bip]Q[NMeA][dL][Dab][Cha]V[Orn]C[Dab]-NH2; thioether N-14)
The IC50 of the first is 10-fold higher: 0.3 µM for the first, 0.03 µM for the second. The second is the more potent here.

First: CC(C)C[C@H]1NC(=O)[C@H](C)N(C)C(=O)[C@H](CCC(N)=O)NC(=O)[C@H](Cc2ccc(-c3ccccc3)cc2)NC(=O)[C@H](Cc2ccc(-c3ccc(C(=O)O)cc3)cc2)NC(=O)[C@H](Cc2cccc(C(F)(F)F)c2)NC(=O)[C@H](CC(=O)O)NC(=O)[C@H](Cc2ccc(C(=O)O)cc2)NC(=O)[C@H](CC2CCCCC2)NC(=O)CSC[C@@H](C(=O)N[C@@H](CCN)C(N)=O)NC(=O)[C@H](CCCN)NC(=O)[C@H](C(C)C)NC(=O)[C@H](CC2CCCCC2)NC(=O)[C@H](CCN)NC1=O [Example 5165] ({CH2CO}-[Cha][Phe(4-COOH)]D[Phe(3-CF3)][Bip(4'-COOH)][Bip]Q[NMeA][dL][Dab][Cha]V[Orn]C[Dab]-NH2; thioether N-14)
Second: Cc1cccc(C[C@@H]2NC(=O)[C@H](CC(=O)O)NC(=O)[C@H](Cc3ccc(O)cc3)NC(=O)[C@H](CN3CCOCC3)NC(=O)CSC[C@@H](C(=O)N[C@@H](CCN)C(N)=O)NC(=O)[C@H](CCC(=O)O)NC(=O)[C@H](CCO)NC(=O)[C@H](CC3CCCCC3)NC(=O)[C@H](CCN)NC(=O)[C@@H](CC(C)C)NC(=O)[C@H](C)N(C)C(=O)[C@H](CCC(N)=O)NC(=O)[C@H](Cc3ccc(-c4ccccc4)cc3)NC(=O)[C@H](Cc3ccc(OCC(=O)O)cc3)NC2=O)c1 [Example 5261] ({CH2CO}-[Ala(morpholin-4-yl)]YD[Phe(3-Me)]Y(Carboxymethyl)[Bip]Q[NMeA][dL][Dab][Cha][hSer]EC[Dab]-NH2; thioether N-14)
The IC50 of the first is 2-fold lower: 0.03 µM for the first, 0.06 µM for the second.

Compound `Cc1cccc(C[C@@H]2NC(=O)[C@H](CC(=O)O)NC(=O)[C@H](Cc3ccc(-c4ccc(C(=O)O)cc4)cc3)NC(=O)[C@H](CN3CCOCC3)NC(=O)CSC[C@@H](C(=O)N[C@@H](CCN)C(N)=O)NC(=O)[C@H](CO)NC(=O)[C@H](C(C)(C)O)NC(=O)[C@H](CC3CCCCC3)NC(=O)[C@H](CC(N)=O)NC(=O)[C@@H](CC(C)C)NC(=O)[C@H](C)N(C)C(=O)[C@H](Cc3ccc(OCC(=O)O)cc3)NC(=O)[C@H](Cc3ccc(-c4ccccc4)cc3)NC(=O)[C@H](Cc3ccc(-c4ccc(C(=O)O)cc4)cc3)NC2=O)c1` [Example 5130] ({CH2CO}-[Ala(morpholin-4-yl)][Bip(4'-COOH)]D[Phe(3-Me)][Bip(4'-COOH)][Bip]Y(Carboxymethyl)[NMeA][dL]N[Cha][Val(3-OH)]SC[Dab]-NH2; thioether N-14) has an IC50 of 0.06 µM.

Same assay, conditions: Jurkat-PD-1 cells, Alexa fluor-647 labeled PD-L1-Ig 177 nM; nM; read-out: CBA Method 3

Compared with `Cc1cccc(C[C@@H]2NC(=O)[C@H](CC(=O)O)NC(=O)[C@H](Cc3ccc(C(=O)O)cc3)NC(=O)[C@H](CC3CCCCC3)NC(=O)CSC[C@@H](C(=O)N[C@@H](CCN)C(N)=O)NC(=O)[C@H](CCC(=O)O)NC(=O)[C@H](C(C)C)NC(=O)[C@H](CC3CCCCC3)NC(=O)[C@H](CCN)NC(=O)[C@@H](CC(C)C)NC(=O)[C@H](C)N(C)C(=O)[C@H](Cc3ccc(C(=O)O)cc3)NC(=O)[C@H](Cc3ccc(-c4ccccc4)cc3)NC(=O)[C@H](Cc3ccc(C(=O)O)cc3)NC2=O)c1` [Example 5196] ({CH2CO}-[Cha][Phe(4-COOH)]D[Phe(3-Me)][Phe(4-COOH)][Bip][Phe(4-COOH)][NMeA][dL][Dab][Cha]VEC[Dab]-NH2; thioether N-14), `Cc1cccc(C[C@@H]2NC(=O)[C@H](CC(=O)O)NC(=O)[C@H](Cc3ccc(C(=O)O)cc3)NC(=O)[C@H](CN3CCOCC3)NC(=O)CSC[C@@H](C(=O)N[C@@H](CCN)C(N)=O)NC(=O)[C@H](CCC(=O)O)NC(=O)[C@H](C(C)C)NC(=O)[C@H](CC3CCCCC3)NC(=O)[C@H](Cc3cnc[nH]3)NC(=O)[C@@H](CC(C)C)NC(=O)[C@H](C)N(C)C(=O)[C@H](Cc3ccc(C(=O)O)cc3)NC(=O)[C@H](Cc3ccc(-c4ccccc4)cc3)NC(=O)[C@H](Cc3ccc(C(=O)O)cc3)NC2=O)c1` [Example 5254] ({CH2CO}-[Ala(morpholin-4-yl)][Phe(4-COOH)]D[Phe(3-Me)][Phe(4-COOH)][Bip][Phe(4-COOH)][NMeA][dL]H[Cha]VEC[Dab]-NH2; thioether N-14) is 5.5-fold lower in IC50: 0.0072 µM for the first, 0.0013 µM for the second. The second is the more potent here.

Compared with `CC(=O)Nc1ccc(-c2ccc(C[C@@H]3NC(=O)[C@H](Cc4cccc(C(F)(F)F)c4)NC(=O)[C@H](CC(=O)O)NC(=O)[C@H](Cc4ccc(C(=O)O)cc4)NC(=O)[C@H]([C@@H](C)N)NC(=O)CSC[C@@H](C(=O)N[C@@H](CCN)C(N)=O)NC(=O)[C@H](CCC(=O)O)NC(=O)[C@H](C(C)C)NC(=O)[C@H](CC4CCCCC4)NC(=O)[C@H](CCN)NC(=O)[C@@H](CC(C)C)NC(=O)[C@H](C)N(C)C(=O)[C@H](Cc4ccc(OCC(=O)O)cc4)NC(=O)[C@H](Cc4ccc(-c5ccccc5)cc4)NC3=O)cc2)cc1` [Example 5162] ({CH2CO}-[Abu(3R-NH2)][Phe(4-COOH)]D[Phe(3-CF3)][Bip(4'-NHAc)][Bip]Y(Carboxymethyl)[NMeA][dL][Dab][Cha]VEC[Dab]-NH2; thioether N-14), `CC(=O)Nc1ccc(-c2ccc(C[C@@H]3NC(=O)[C@H](Cc4cccc(C(F)(F)F)c4)NC(=O)[C@H](CC(=O)O)NC(=O)[C@H](Cc4ccc(C(=O)O)cc4)NC(=O)[C@H]([C@@H](C)N)NC(=O)CSC[C@@H](C(=O)N[C@@H](CCN)C(N)=O)NC(=O)[C@H](CCC(=O)O)NC(=O)[C@H](C(C)C)NC(=O)[C@H](CC4CCCCC4)NC(=O)[C@H](CCN)NC(=O)[C@@H](CC(C)C)NC(=O)[C@H](C)N(C)C(=O)[C@H](Cc4ccc(C(=O)O)cc4)NC(=O)[C@H](Cc4ccc(-c5ccccc5)cc4)NC3=O)cc2)cc1` [Example 5154] ({CH2CO}-[Abu(3R-NH2)][Phe(4-COOH)]D[Phe(3-CF3)][Bip(4'-NHAc)][Bip][Phe(4-COOH)][NMeA][dL][Dab][Cha]VEC[Dab]-NH2; thioether N-14) is 13-fold higher in IC50: 0.0005 µM for the first, 0.0063 µM for the second. The first is the more potent here.

`CC(=O)Nc1ccc(-c2ccc(C[C@@H]3NC(=O)[C@H](Cc4cccc(C)c4)NC(=O)[C@H](CC(=O)O)NC(=O)[C@H](CCCn4cc(-c5ccccc5)nn4)NC(=O)[C@H](CN4CCOCC4)NC(=O)CSC[C@@H](C(=O)N[C@@H](CCN)C(N)=O)NC(=O)[C@H](CCC(N)=O)NC(=O)[C@H](C(C)C)NC(=O)[C@H](CC4CCCCC4)NC(=O)[C@H](CCN)NC(=O)[C@@H](CC(C)C)NC(=O)[C@H](C)N(C)C(=O)[C@H](Cc4ccc(C(=O)O)cc4)NC(=O)[C@H](Cc4ccc(-c5ccccc5)cc4)NC3=O)cc2)cc1` [Example 5295] ({CH2CO}-[Ala(morpholin-4-yl)][X38]D[Phe(3-Me)][Bip(4'-NHAc)][Bip][Phe(4-COOH)][NMeA][dL][Dab][Cha]VQC[Dab]-NH2; thioether N-14) was tested, and the IC50 was 0.0016 µM.
